pIC50: −log10 of the molar value.
Experiments:
[1] = target: JAK2 (recombinant purified GST-tagged catalytic domain) (Homo sapiens (Human), UniProt O60674); assay: biochemical;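 further: biochemical JAK kinase assay with HTRF detection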
[2] = target: JAK1 (recombinant purified GST-tagged catalytic domain) (Homo sapiens (Human), UniProt P23458); assay: biochemical;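 further: biochemical assay with HTRF read-out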
Chain of JAK1 (recombinant purified GST-tagged catalytic domain) (P23458 875-1153): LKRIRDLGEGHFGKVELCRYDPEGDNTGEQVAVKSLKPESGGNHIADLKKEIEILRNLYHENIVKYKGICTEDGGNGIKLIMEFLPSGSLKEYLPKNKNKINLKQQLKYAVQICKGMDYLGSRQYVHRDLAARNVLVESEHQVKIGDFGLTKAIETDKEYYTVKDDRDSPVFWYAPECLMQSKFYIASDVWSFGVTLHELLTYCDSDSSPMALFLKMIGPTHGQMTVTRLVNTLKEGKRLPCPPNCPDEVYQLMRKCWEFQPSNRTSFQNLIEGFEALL

Chain of JAK2 (recombinant purified GST-tagged catalytic domain) (O60674 849-1124): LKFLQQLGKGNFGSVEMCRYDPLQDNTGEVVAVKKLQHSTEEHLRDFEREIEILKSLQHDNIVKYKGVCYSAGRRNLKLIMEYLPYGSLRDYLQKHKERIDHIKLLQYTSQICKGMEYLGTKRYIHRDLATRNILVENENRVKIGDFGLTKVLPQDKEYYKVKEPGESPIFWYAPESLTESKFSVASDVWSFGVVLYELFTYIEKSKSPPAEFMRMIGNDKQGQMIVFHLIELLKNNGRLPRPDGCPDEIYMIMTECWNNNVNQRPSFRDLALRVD

| SMILES | pIC50 [1] | pIC50 [2] |
| --- | --- | --- |
| N#C[C@H]1C[C@@H](O)CC[C@@H]1n1cc(C(N)=O)c(Nc2ccc(C(F)F)nc2)n1 (single isomer, unassigned) [Example 33-8, 1-[(1S,2S,4S or 1R,2R,4R)-2-cyano-4-hydroxycyclohexyl)-3-{I6-(difluoromethyl)pyridin-3-yl]amino}-1H-pyrazole-4-carboxamide] | 7.48 | 8.10 |
| N#C[C@H]1C[C@@H](O)CC[C@@H]1n1cc(C(N)=O)c(Nc2ccc(C(F)(F)F)nc2)n1 (single isomer, unassigned) [Example 33-9, 1-[(1S,2S,4S or 1R,2R,4R)-2-cyano-4-hydroxycyclohexyl]-3-{[6-(trifluoromethyl)pyridin-3-yl]amino}-1H-pyrazole-4-carboxamide] | 7.19 | 7.68 |
| N#C[C@H]1C[C@@H](O)CC[C@@H]1n1cc(C(N)=O)c(Nc2ccc([C@H](O)C(F)(F)F)cc2)n1 (single isomer, unassigned) [Example 33-10, 1-[(1S,2S,4S or 1R,2R,4R)-2-cyano-4-hydroxycyclohexyl]-3-({4-[(1S)-2,2,2-trifluoro-1-hydroxyethyl]phenyl}amino)-1H-pyrazole-4-carboxamide] | 8.70 | 9.52 |
| N#C[C@H]1C[C@@H](O)CC[C@@H]1n1cc(C(N)=O)c(Nc2ccc([C@@H](O)C(F)(F)F)cc2)n1 (single isomer, unassigned) [Example 33-11, 1-[(1S,2S,4S or 1R,2R,4R)-2-cyano-4-hydroxycyclohexyl]-3-({4-[(1R or 1S)-2,2,2-trifluoro-1-hydroxyethyl]phenyl}amino)-1H-pyrazole-4-carboxamide] | 8.52 | 9.35 |
| CC(C)(c1ccc(Nc2nn([C@H]3CC[C@H](O)C[C@@H]3C#N)cc2C(N)=O)cc1)C(O)C(F)(F)F (single isomer, unassigned) [Example 33-15, 1-[(1S,2S,4S or 1R,2R,4R)-2-cyano-4-hydroxycyclohexyl]-3-{[4-(3,3,3-trifluoro-(2R or 2S)-hydroxy-1,1-dimethylpropyl)phenyl]amino}-1H-pyrazole-4-carboxamide] | 8.70 | 9.30 |
| CC(C)(c1ccc(Nc2nn([C@H]3CC[C@H](O)C[C@@H]3C#N)cc2C(N)=O)cc1)C(O)C(F)(F)F (single isomer, unassigned) [Example 33-16, 1-[(1S,2S,4S or 1R,2R,4R)-2-cyano-4-hydroxycyclohexyl]-3-{[4-(3,3,3-trifluoro-(2R or 2S)-hydroxy-1,1-dimethylpropyl)phenyl]amino}-1H-pyrazole-4-carboxamide] | 8.52 | 9.15 |
| N#C[C@H]1C[C@@H](O)CC[C@@H]1n1cc(C(N)=O)c(Nc2ccc(Cl)c(Cl)c2)n1 (single isomer, unassigned) [Example 33-20, 1-[(1S,2S,4S or 1R,2R,4R)-2-cyano-4-hydroxycyclohexyl]-3-[(3,4-dichlorophenyl)amino]-1H-pyrazole-4-carboxamide] | 7.70 | 8.70 |
| CC(C)(O)C1CN(C(=O)[C@@H]2CC[C@@H](n3cc(C(N)=O)c(Nc4ccc(Cl)cc4)n3)[C@H](C#N)C2)C1 (single isomer, unassigned) [Example 35-3, 3-[(4-chlorophenyl)amino]-1-[(1R,2R,4R or 1S,2S,4S)-2-cyano-4-{[3-(1-hydroxy-1-methylethyl)azetidin-1-yl]carbonyl}cyclohexyl]-1H-pyrazole-4-carboxamide] | 7.23 | 8.05 |
| N#C[C@@H]1C[C@H](C(=O)NC(C2CC2)C2CC2)CC[C@H]1n1cc(C(N)=O)c(Nc2ccc(Cl)cc2)n1 (single isomer, unassigned) [Example 35-5, 3-[(4-chlorophenyl)amino]-1-{(1R,2R,4R or 1S,2S,4S)-2-cyano-4-[(dicyclopropylmethyl)carbamoyl]cyclohcxyl}-1H-pyrazole-4-carboxamide] | 6.77 | 7.89 |
| N#C[C@H]1C[C@@H](C(=O)NC2COC2)CC[C@@H]1n1cc(C(N)=O)c(Nc2ccc(Cl)cc2)n1 (single isomer, unassigned) [Example 35-7, 3-[(4-chlorophenyl)amino]-1-[(1S,2S,4S or 1R,2R,4R)-2-cyano-4-(oxetan-3-ylcarbamoyl)cyclohexyl]-1H-pyrazole-4-carboxamide] | 6.61 | 7.48 |
| CS(=O)(=O)C1CN(C(=O)[C@@H]2CC[C@@H](n3cc(C(N)=O)c(Nc4ccc(Cl)cc4)n3)[C@H](C#N)C2)C1 (single isomer, unassigned) [Example 35-8, 3-[(4-chlorophenyl)amino]-1-[(1R,2R,4R or 1S,2S,4S)-2-cyano-4-{[3-(methylsulfonyl)azetidin-1-yl]carbonyl}cyclohexyl]-1H-pyrazole-4-carboxamide] | 7.72 | 8.52 |
| CC(C)(O)C1CN(C(=O)[C@H]2CC[C@H](n3cc(C(N)=O)c(Nc4ccc(Cl)cc4)n3)[C@@H](C#N)C2)C1 (single isomer, unassigned) [Example 35-9, 3-[(4-chlorophenyl)amino]-1-[(1S,2S,4S or 1R,2R,4R)-2-cyano-4-{[3-(1-hydroxy-1-methylethyl)azetidin-1-yl]carbonyl}cyclohexyl}-1H-pyrazole-4-carboxamide] | 6.50 | 7.52 |
| N#C[C@@H]1C[C@H](C(=O)NCC(F)(F)F)CCC1n1cc(C(N)=O)c(Nc2ccc(Cl)cc2)n1 (single isomer, unassigned) [Example 35-10, 3-[(4-chlorophenyl)amino]-1-{(1R,2R,4R or 1S,2S,4S)-2-cyano-4-[(2,2,2-trifluoroethyl)carbamoyl]cyclohexyl}-1H-pyrazole-4-carboxamide] | 7.42 | 8.52 |
| N#C[C@@H]1C[C@H](C(=O)NC2COC2)CC[C@H]1n1cc(C(N)=O)c(Nc2ccc(Cl)cc2)n1 (single isomer, unassigned) [Example 35-13, 3-[(4-chlorophenyl)amino]-1-[(1R,2R,4R or 1S,2S,4S)-2-cyano-4-(oxetan-3-ylcarbamoyl)cyclohexyl]-1H-pyrazole-4-carboxamide] | 7.42 | 8.30 |
| N#C[C@@H]1C[C@H](C(=O)NC2CC(F)(F)C2)CC[C@H]1n1cc(C(N)=O)c(Nc2ccc(Cl)cc2)n1 (single isomer, unassigned) [Example 35-18, 3-[(4-chlorophenyl)amino]-1-{(1R,2R,4R or 1S,2S,4S)-2-cyano-4-[(3,3-difluorocyclobutyl)carbamoyl]cyclohexyl}-1H-pyrazole-4-carboxamide] | 6.87 | 7.89 |
| N#C[C@@H]1C[C@H](C(=O)NC2CC2)CC[C@H]1n1cc(C(N)=O)c(Nc2ccc(Cl)cc2)n1 (single isomer, unassigned) [Example 35-19, 3-[(4-chlorophenyl)amino]-1-[(1R,2R,4R or 1S,2S,4S)-2-cyano-4-(cyclopropylcarbamoyl)cyclohexyl]-1H-pyrazole-4-carboxamide] | 7.64 | 8.30 |
| N#C[C@H]1C[C@@H](C(=O)NC2CC(F)(F)C2)CC[C@@H]1n1cc(C(N)=O)c(Nc2ccc(Cl)cc2)n1 (single isomer, unassigned) [Example 35-20, 3-[(4-chlorophenyl)amino]-1-{(1S,2S,4S or 1R,2R,4R)-2-cyano-4-[(3,3-difluorocyclobutyl)carbamoyl]cyclohexyl}-1H-pyrazole-4-carboxamide] | 6.76 | 7.68 |
| N#C[C@H]1C[C@@H](C(=O)NC(C2CC2)C2CC2)CC[C@@H]1n1cc(C(N)=O)c(Nc2ccc(Cl)cc2)n1 (single isomer, unassigned) [Example 35-21, 3-[(4-chlorophenyl)amino]-1-{(1S,2S,4S or 1R,2R,4R)-2-cyano-4-[(dicyclopropylmethyl)carbamoyl]cyclohexyl}-1H-pyrazole-4-carboxamide] | 6.30 | 7.60 |
| N#C[C@H]1C[C@@H](C(=O)NCC(F)(F)F)CC[C@@H]1n1cc(C(N)=O)c(Nc2ccc(Cl)cc2)n1 (single isomer, unassigned) [Example 35-22, 3-[(4-chlorophenyl)amino]-1-{(1S,2S,4S or 1R,2R,4R)-2-cyano-4-[(2,2,2-trifluoroethyl)carbamoyl]cyclohexyl}-1H-pyrazole-4-carboxamide] | 6.66 | 8.15 |
| N#C[C@H]1C[C@@H](C(=O)NC2CC2)CC[C@@H]1n1cc(C(N)=O)c(Nc2ccc(Cl)cc2)n1 (single isomer, unassigned) [Example 35-23, 3-[(4-chlorophenyl)amino]-1-[(1S,2S,4S or 1R,2R,4R)-2-cyano-4-(cyclopropylcarbamoyl)cyclohexyl]-1H-pyrazole-4-carboxamide] | 6.53 | 7.43 |
| CS(=O)(=O)C1CN(C(=O)[C@H]2CC[C@H](n3cc(C(N)=O)c(Nc4ccc(Cl)cc4)n3)[C@@H](C#N)C2)C1 (single isomer, unassigned) [Example 35-26, 3-[(4-chlorophenyl)amino]-1-[(1S,2S,4S or 1R,2R,4R)-2-cyano-4-{[3-(methylsulfonyl)azetidin-1-yl]carbonyl}cyclohexyl]-1H-pyrazole-4-carboxamide] | 7.31 | 8.70 |
| CC1(O)CN(C(=O)[C@@H]2CC[C@@H](n3cc(C(N)=O)c(Nc4ccc(Cl)cc4)n3)[C@H](C#N)C2)C1 (single isomer, unassigned) [Example 35-27, 3-[(4-chlorophenyl)amino]-1-{(1R,2R,4R or 1S,2S,4S)-2-cyano-4 [(3-hydroxy-3-methylazetidin-1-yl)carbonyl]cyclohexyl}-1H-pyrazole-4-carboxamide] | 7.46 | 8.30 |
| CC1(O)CN(C(=O)[C@H]2CC[C@H](n3cc(C(N)=O)c(Nc4ccc(Cl)cc4)n3)[C@@H](C#N)C2)C1 (single isomer, unassigned) [Example 35-30, 3-[(4-chlorophenyl)amino]-1-{(1S,2S,4S or 1R,2R,4R)-2-cyano-4-[(3-hydroxy-3-methylazetidin-1-yl)carbonyl]cyclohexyl}-1H-pyrazole-4-carboxamide] | 6.74 | 8.00 |

— US8962608B2, “Cycloalkylnitrile pyrazole carboxamides as janus kinase inhibitors” (Merck Sharp & Dohme Corp., priority 2011, dated 2015)
